Laboratory results taken from ChEMBL document CHEMBL3870329, “Synthesis of peptide nucleic acids (PNA) with a crosslinking agent to RNA and effective inhibition of dicer” (Bioorg Med Chem Lett, 2016).
Values belong to the molecule of their own block, whether it stands above or below them. Activity calls are given as the source filed them. No cut-off for these calls is given here.

Columns and labels:
Nucleic Acid [1] = assay: Binding affinity to synthetic 5'-FAM-labelled pre-miR-122 RNA site1 (unknown origin) assessed as heteroduplex formation at 4 uM measured after 2 hrs by denaturing PAGE analysis relative to control; format: nucleic-acid assay
Nucleic Acid [2] = assay: Binding affinity to synthetic 5'-fluorescein-labelled pre-miR-122 RNA site1 (unknown origin) assessed as heteroduplex formation at 4 uM measured after 48 hrs by non-denaturing PAGE analysis relative to control; format: nucleic-acid assay
Nucleic Acid [3] = assay: Binding affinity to synthetic 5'-FAM-labelled pre-miR-122 RNA site1 (unknown origin) assessed as human dicer-mediated digestion of pre-miR-122 RNA preincubated with RNA for 2 days followed by dicer addition measured after 2 hrs by denaturing PAGE analysis; format: nucleic-acid assay
Nucleic Acid [4] = assay: Binding affinity to synthetic 5'-FAM-labelled pre-miR-122 RNA site1 (unknown origin) assessed as inhibition of human dicer-mediated digestion of pre-miR-122 RNA preincubated with RNA for 2 days followed by dicer addition measured after 2 hrs by denaturing PAGE analysis relative to control; format: nucleic-acid assay; settings: concentration not given here
Nucleic Acid [5] = assay: Binding affinity to 5'-end FAM-tagged CACUAUUACCGCAAACUAUC RNA (unknown origin) assessed as induction of crosslinking by measuring heteroduplex formation at 4 uM measured after 24 hrs by bromophenol blue staining-based denaturing PAGE analysis; format: nucleic-acid assay
Nucleic Acid [6] = assay: Binding affinity to synthetic 5'-FAM-labelled pre-miR-122 RNA site2 (unknown origin) assessed as heteroduplex formation at 4 uM measured after 2 hrs by denaturing PAGE analysis relative to control; format: nucleic-acid assay
Nucleic Acid [7] = assay: Binding affinity to synthetic 5'-fluorescein-labelled pre-miR-122 RNA site2 (unknown origin) assessed as heteroduplex formation at 4 uM measured after 48 hrs by non-denaturing PAGE analysis relative to control; format: nucleic-acid assay
Nucleic Acid [8] = assay: Binding affinity to synthetic 5'-FAM-labelled pre-miR-122 RNA site2 (unknown origin) assessed as human dicer-mediated digestion of pre-miR-122 RNA preincubated with RNA for 2 days followed by dicer addition measured after 2 hrs by denaturing PAGE analysis; format: nucleic-acid assay
Nucleic Acid [9] = assay: Binding affinity to synthetic 5'-FAM-labelled pre-miR-122 RNA site2 (unknown origin) assessed as inhibition of human dicer-mediated digestion of pre-miR-122 RNA preincubated with RNA for 2 days followed by dicer addition measured after 2 hrs by denaturing PAGE analysis relative to control; format: nucleic-acid assay; settings: concentration not given here
Nucleic Acid [10] = assay: Binding affinity to 5'-end FAM-tagged GUGGUAACAGUGUGAGGU RNA (unknown origin) assessed as induction of crosslinking by measuring heteroduplex formation at 4 uM measured after 24 hrs by bromophenol blue staining-based denaturing PAGE analysis; format: nucleic-acid assay
[11] = Binding affinity to 5'-end FAM-tagged GACACAATCCCAATCTGGTT DNA (unknown origin) assessed as change in melting temperature at 1.5 uM measured after 5 mins by UV spectrophotometry
[12] = Binding affinity to 5'-end FAM-tagged GACGCAATCCCAATCTGGTT DNA (unknown origin) assessed as change in melting temperature at 1.5 uM measured after 5 mins by UV spectrophotometry
[13] = Binding affinity to 5'-end FAM-tagged GACCCAATCCCAATCTGGTT DNA (unknown origin) assessed as change in melting temperature at 1.5 uM measured after 5 mins by UV spectrophotometry
[14] = Binding affinity to 5'-end FAM-tagged GACTCAATCCCAATCTGGTT DNA (unknown origin) assessed as change in melting temperature at 1.5 uM measured after 5 mins by UV spectrophotometry
[15] = Binding affinity to 5'-end FAM-tagged GACACAAUCCCAAUCUGGUU RNA (unknown origin) assessed as change in melting temperature at 1.5 uM measured after 5 mins by UV spectrophotometry
[16] = Binding affinity to 5'-end FAM-tagged GACGCAAUCCCAAUCUGGUU RNA (unknown origin) assessed as change in melting temperature at 1.5 uM measured after 5 mins by UV spectrophotometry
[17] = Binding affinity to 5'-end FAM-tagged GACCCAAUCCCAAUCUGGUU RNA (unknown origin) assessed as change in melting temperature at 1.5 uM measured after 5 mins by UV spectrophotometry
[18] = Binding affinity to 5'-end FAM-tagged GACUCAAUCCCAAUCUGGUU RNA (unknown origin) assessed as change in melting temperature at 1.5 uM measured after 5 mins by UV spectrophotometry
Nucleic Acid [19] = assay: Binding affinity to synthetic 5'-FAM-labelled pre-miR-122 RNA site3 (unknown origin) assessed as heteroduplex formation at 4 uM measured after 2 hrs by denaturing PAGE analysis relative to control; format: nucleic-acid assay
Nucleic Acid [20] = assay: Binding affinity to synthetic 5'-fluorescein-labelled pre-miR-122 RNA site3 (unknown origin) assessed as heteroduplex formation at 4 uM measured after 48 hrs by non-denaturing PAGE analysis relative to control; format: nucleic-acid assay
Nucleic Acid [21] = assay: Binding affinity to synthetic 5'-FAM-labelled pre-miR-122 RNA site3 (unknown origin) assessed as human dicer-mediated digestion of pre-miR-122 RNA preincubated with RNA for 2 days followed by dicer addition measured after 2 hrs by denaturing PAGE analysis; format: nucleic-acid assay
Nucleic Acid [22] = assay: Binding affinity to synthetic 5'-FAM-labelled pre-miR-122 RNA site3 (unknown origin) assessed as inhibition of human dicer-mediated digestion of pre-miR-122 RNA by measuring heteroduplex formation preincubated with RNA for 2 days followed by dicer addition measured after 2 hrs by denaturing PAGE analysis relative to control; format: nucleic-acid assay; settings: concentration not given here
Nucleic Acid [23] = assay: Binding affinity to 5'-end FAM-tagged GCAAACUAUCAAAUCUGUGU RNA (unknown origin) assessed as induction of crosslinking by measuring heteroduplex formation at 4 uM measured after 24 hrs by bromophenol blue staining-based denaturing PAGE analysis; format: nucleic-acid assay
Nucleic Acid [24] = assay: Binding affinity to 5'-end FAM-tagged GACCAAACCCAAUCUGGUU RNA (unknown origin) assessed as induction of crosslinking by measuring heteroduplex formation at 4 uM measured after 24 hrs by bromophenol blue staining-based denaturing PAGE analysis relative to control; format: nucleic-acid assay
Nucleic Acid [25] = assay: Binding affinity to 5'-end FAM-tagged GACCAAGCCCAAUCUGGUU RNA (unknown origin) assessed as induction of crosslinking by measuring heteroduplex formation at 4 uM measured after 24 hrs by bromophenol blue staining-based denaturing PAGE analysis relative to control; format: nucleic-acid assay
Nucleic Acid [26] = assay: Binding affinity to 5'-end FAM-tagged GACCAACCCCAAUCUGGUU RNA (unknown origin) assessed as induction of crosslinking by measuring heteroduplex formation at 4 uM measured after 24 hrs by bromophenol blue staining-based denaturing PAGE analysis relative to control; format: nucleic-acid assay
Nucleic Acid [27] = assay: Binding affinity to 5'-end FAM-tagged GACCAAUCCCAAUCUGGUU RNA (unknown origin) assessed as induction of crosslinking by measuring heteroduplex formation at 4 uM measured after 24 hrs by bromophenol blue staining-based denaturing PAGE analysis relative to control; format: nucleic-acid assay
Nucleic Acid [28] = assay: Binding affinity to 5'-end FAM-tagged GACCAAACCCAATCTGGTT DNA (unknown origin) assessed as induction of crosslinking by measuring heteroduplex formation at 4 uM measured after 24 hrs by bromophenol blue staining-based denaturing PAGE analysis relative to control; format: nucleic-acid assay
Nucleic Acid [29] = assay: Binding affinity to 5'-end FAM-tagged GACCAAGCCCAATCTGGTT DNA (unknown origin) assessed as induction of crosslinking by measuring heteroduplex formation at 4 uM measured after 24 hrs by bromophenol blue staining-based denaturing PAGE analysis relative to control; format: nucleic-acid assay
Nucleic Acid [30] = assay: Binding affinity to 5'-end FAM-tagged GACCAACCCCAATCTGGTT DNA (unknown origin) assessed as induction of crosslinking by measuring heteroduplex formation at 4 uM measured after 24 hrs by bromophenol blue staining-based denaturing PAGE analysis relative to control; format: nucleic-acid assay
Nucleic Acid [31] = assay: Binding affinity to 5'-end FAM-tagged GACCAATCCCAATCTGGTT DNA (unknown origin) assessed as induction of crosslinking by measuring heteroduplex formation at 4 uM measured after 24 hrs by bromophenol blue staining-based denaturing PAGE analysis relative to control; format: nucleic-acid assay
unidentified [32] = assay: Binding affinity to 5'-end FAM-tagged GACCAATCCCAATCTGGTT DNA (unknown origin) assessed as melting temperature at 1.5 uM measured after 5 mins by UV spectrophotometry (reference value: 67.4 degC)
unidentified [33] = assay: Binding affinity to 5'-end FAM-tagged GACCAAUCCCAAUCUGGUU RNA (unknown origin) assessed as melting temperature at 1.5 uM measured after 5 mins by UV spectrophotometry (reference value: 77.1 degC)

SMILES: Cc1cn(CC(=O)N(CCNC(=O)CN(CCNC(=O)CN(CCNC(=O)CN(CCNC(=O)CN(CCNC(=O)CN(CCNC(=O)CN(CCNC(=O)CN(CCNC(=O)CN(CCNC(=O)CN(CCNC(=O)CN(CCN)C(=O)Cn2cnc3c(N)ncnc32)C(=O)Cn2cc(C)c(=O)[nH]c2=O)C(=O)Cn2cc(C)c(=O)[nH]c2=O)C(=O)Cn2cnc3c(=O)[nH]c(N)nc32)C(=O)Cn2cc(C)c(=O)[nH]c2=O)C(=O)Cn2ccc(N)nc2=O)C(=O)Cn2cnc3c(N)ncnc32)C(=O)Cn2ccc(N)nc2=O)C(=O)Cn2cnc3c(N)ncnc32)C(=O)Cn2ccc(N)nc2=O)CC(=O)NCCN(CC(=O)NCCN(CC(=O)N[C@@H](CCCNC(=N)N)C(=O)O)C(=O)Cn2ccc(N)nc2=O)C(=O)Cn2ccc(N)nc2=O)c(=O)[nH]c1=O
Activity (Nucleic Acid [6]): 0% | Activity (Nucleic Acid [7]): 28% | Activity (Nucleic Acid [8]): 78% | inhibition (Nucleic Acid [9]): 22% | Activity (Nucleic Acid [10]): Active

SMILES: CSCCc1nc(N)nc2c1ncn2CC(=O)N(CCNC(C)=O)CC(=O)NCCN(CC(=O)NCCN(CC(=O)NCCN(CC(=O)NCCN(CC(=O)NCCN(CC(=O)NCCN(CC(=O)NCCN(CC(=O)NCCN(CC(=O)NCCN(CC(=O)NCCN(CC(=O)NCCN(CC(=O)N[C@@H](CCCNC(=N)N)C(=O)N[C@@H](CCCNC(=N)N)C(=O)NCC(N)=O)C(=O)Cn1cnc2c(=O)[nH]c(N)nc21)C(=O)Cn1cnc2c(N)ncnc21)C(=O)Cn1cc(C)c(=O)[nH]c1=O)C(=O)Cn1cc(C)c(=O)[nH]c1=O)C(=O)Cn1cnc2c(=O)[nH]c(N)nc21)C(=O)Cn1cnc2c(=O)[nH]c(N)nc21)C(=O)Cn1cnc2c(=O)[nH]c(N)nc21)C(=O)Cn1cnc2c(N)ncnc21)C(=O)Cn1cc(C)c(=O)[nH]c1=O)C(=O)Cn1cc(C)c(=O)[nH]c1=O)C(=O)Cn1cnc2c(=O)[nH]c(N)nc21
ΔTm [11]: -2.7 °C | ΔTm [12]: -1.9 °C | ΔTm [13]: -1.7 °C | ΔTm [14]: -1.1 °C | ΔTm [15]: -4.2 °C | ΔTm [16]: -2.1 °C | ΔTm [17]: -2.5 °C | ΔTm [18]: -2.3 °C

SMILES: C=Cc1nc(N)nc2c1ncn2CC(=O)N(CCNC(=O)CN(CCNC(=O)CN(CCNC(=O)CN(CCNC(C)=O)C(=O)Cn1cnc2c(=O)[nH]c(N)nc21)C(=O)Cn1cc(C)c(=O)[nH]c1=O)C(=O)Cn1cc(C)c(=O)[nH]c1=O)CC(=O)NCCN(CC(=O)NCCN(CC(=O)NCCN(CC(=O)NCCN(CC(=O)NCCN(CC(=O)NCCN(CC(=O)NCCN(CC(=O)N[C@@H](CCCNC(=N)N)C(=O)N[C@@H](CCCNC(=N)N)C(=O)NCC(N)=O)C(=O)Cn1cnc2c(=O)[nH]c(N)nc21)C(=O)Cn1cnc2c(N)ncnc21)C(=O)Cn1cc(C)c(=O)[nH]c1=O)C(=O)Cn1cc(C)c(=O)[nH]c1=O)C(=O)Cn1cnc2c(=O)[nH]c(N)nc21)C(=O)Cn1cnc2c(=O)[nH]c(N)nc21)C(=O)Cn1cnc2c(=O)[nH]c(N)nc21
Activity (Nucleic Acid [24]): 0% | Activity (Nucleic Acid [25]): 4% | Activity (Nucleic Acid [26]): 0% | Activity (Nucleic Acid [27]): 2% | Activity (Nucleic Acid [28]): 0% | Activity (Nucleic Acid [29]): 7% | Activity (Nucleic Acid [30]): 1% | Activity (Nucleic Acid [31]): 3% | Tm (unidentified [32]): 77.3 °C | Tm (unidentified [33]): 83 °C

Continued, values first:

Activity (Nucleic Acid [1]): 0% | Activity (Nucleic Acid [2]): 16% | Activity (Nucleic Acid [3]): 91% | inhibition (Nucleic Acid [4]): 9% | Activity (Nucleic Acid [5]): Active
SMILES: Cc1cn(CC(=O)N(CCNC(=O)CN(CCNC(=O)CN(CCNC(=O)CN(CCNC(=O)CN(CCNC(=O)CN(CCNC(=O)CN(CCNC(=O)CN(CCN)C(=O)Cn2cnc3c(N)ncnc32)C(=O)Cn2cc(C)c(=O)[nH]c2=O)C(=O)Cn2cnc3c(=O)[nH]c(N)nc32)C(=O)Cn2cnc3c(=O)[nH]c(N)nc32)C(=O)Cn2ccc(N)nc2=O)C(=O)Cn2cnc3c(=O)[nH]c(N)nc32)C(=O)Cn2cc(C)c(=O)[nH]c2=O)CC(=O)NCCN(CC(=O)NCCN(CC(=O)NCCN(CC(=O)NCCN(CC(=O)NCCN(CC(=O)N[C@@H](CCCNC(=N)N)C(=O)O)C(=O)Cn2cnc3c(N)ncnc32)C(=O)Cn2cc(C)c(=O)[nH]c2=O)C(=O)Cn2cnc3c(N)ncnc32)C(=O)Cn2cnc3c(=O)[nH]c(N)nc32)C(=O)Cn2cc(C)c(=O)[nH]c2=O)c(=O)[nH]c1=O

Activity (Nucleic Acid [19]): 0% | Activity (Nucleic Acid [20]): 75% | Activity (Nucleic Acid [21]): 53% | inhibition (Nucleic Acid [22]): 47% | Activity (Nucleic Acid [23]): Active
SMILES: Cc1cn(CC(=O)N(CCNC(=O)CN(CCNC(=O)CN(CCNC(=O)CN(CCNC(=O)CN(CCNC(=O)CN(CCN)C(=O)Cn2cnc3c(N)ncnc32)C(=O)Cn2cc(C)c(=O)[nH]c2=O)C(=O)Cn2cnc3c(N)ncnc32)C(=O)Cn2cnc3c(=O)[nH]c(N)nc32)C(=O)Cn2cc(C)c(=O)[nH]c2=O)CC(=O)NCCN(CC(=O)NCCN(CC(=O)NCCN(CC(=O)NCCN(CC(=O)NCCN(CC(=O)NCCN(CC(=O)NCCN(CC(=O)N[C@@H](CCCNC(=N)N)C(=O)O)C(=O)Cn2ccc(N)nc2=O)C(=O)Cn2cnc3c(N)ncnc32)C(=O)Cn2ccc(N)nc2=O)C(=O)Cn2cnc3c(N)ncnc32)C(=O)Cn2cnc3c(=O)[nH]c(N)nc32)C(=O)Cn2cnc3c(N)ncnc32)C(=O)Cn2cc(C)c(=O)[nH]c2=O)c(=O)[nH]c1=O
